{"source": "patent US12636291B2", "about": "“Compositions and methods relating to use of agonists of ALPHA5-containing GABAA receptors” (Centre for Addiction and Mental Health, priority 2019, dated 2026)", "system": "heterozygous 5×FAD mice", "assay": "Spontaneous alternation in the Y-Maze, 5×FAD Alzheimer's disease model pilot", "assay_type": "in vivo, mouse", "conditions": "6 months of age, acute i.p. 10 mg/kg vs vehicle, FIG. 23", "experimental": "A pilot study was performed in the 5×FAD mouse Alzheimer's disease model system using 15 heterozygous animals tested from the age of 4 to 6 months. The same animals were tested monthly for spontaneous alternation in the Y-Maze test. When they reached the age of 6 months, 50% of the animals were injected i.p. with vehicle or with GL-II-73 (10 mg/kg).\nAnimals: For the experiments described above, young (n=11, age 2 months) and old male mice (N=23) were purchased from Charles River. Old mice were obtained at the age of 9-10 months and were kept in the animal facility until they reached the age of 22 months. Young mice (2 months old) were purchased when old mice had already reached the age of 22 months. All animals were single housed. Experiments were performed on mice aged 2 months (“young”) or 22 months (“old”) at the beginning of the experimental protocol. The second set of experiments with the Washout group included 8 young mice and 22 old mice. Old mice were split into 3 groups of 7-8 between “Old”, “Old-treated” and “Old-Washout”. […]\nSpontaneous alternation in the Y-Maze: Mice were tested in a Y maze test as an assessment of working memory. […] The alternation rate was calculated and was expressed as a percentage: […]", "data": [{"smiles": "C#Cc1ccc2c(c1)C(c1ccccc1F)=N[C@H](C)c1c(C(=O)N(C)C)ncn1-2", "note": "(stereo in doubt) [GL-II-73, 8-ethynyl-6-(2-fluorophenyl)-N,N,4-trimethyl-4H-benzo[f]imidazo[1,5-a][1,4]diazepine-3-carboxamide]", "values": [{"measurement": "alternation performance in the Y-Maze test", "result": "a reversal of this decrease in alternation performance in the GL-II-73 treated group, although also not reaching statistical significance"}]}]}
